Experimental data reported in patent US20230330060A1, “COMPOUNDS FOR TREATMENT OF HEART FAILURE” (Sulfateq B.V., priority 2020, published 2023).

Columns and labels:
[1] = system: doxorubicin-induced heart failure; experiment: Cardiac ATP/ADP ratio (HPLC); format: in vivo, rat; settings: doxorubicin rats; prophylactic or therapeutic administration of SUL-150
Experimental: (§1) SUL-150 (250 mg) was dissolved in 100% EtOH (1.02 ml) and further diluted in distilled water (68.7 ml) to obtain a clear 10 mM solution. The SUL-150 solution was sprayed homogeneously over standard food pellets (1.25 kg). Food pellets were air-dried overnight. Food pellets were freshly prepared weekly. With the approximation of 200 mg·kg^−1 SUL-150 in the food pellets and a daily dietary intake of 25 gram for a 350 gram rat, daily dosing of SUL-150 approximates 5 mg·day^−1.
(§2) Male outbred Wistar rats of 250-300 grams (10-12 weeks old) were kept on a 12 h light/dark cycle and received a standard diet with distilled water ad libitum. Thirty rats were administered with doxorubicin (2 mg·kg^−1) weekly via intraperitoneal injection for 9 consecutive weeks and were left either untreated (standard chow diet, 10 rats), or received a diet supplemented with SUL-150 as prophylaxis (prior to the 1st doxorubicin administration, 10 rats) or therapy (starting after the 6th doxorubicin administration, 10 rats). […]
Cardiac tissue samples were homogenized in Tris-saturated phenol (pH 7.4) using a TissueRuptor II (Qiagen, Hilden, Germany) to extract adenosines and separated over chloroform:water (1:1 v/v) by centrifugation. […] The eluted nucleotides were detected at a wavelength of 260 nm. Nucleotide concentration of the eluate was calculated using calibration curves for each standard nucleotide peak area. […]

H9C2 cardiomyocytes = experiment: Quantification of phenylephrine-induced EGFP synthesis as surrogate for cell size (hypertrophy); format: cell-based, rat
Experimental: Rat H9C2 cardiomyoblasts (ATCC CRL-1446) were maintained in DMEM medium containing 10% fetal bovine serum and 1% Penicillin-Streptomycin solution (Sigma-Aldrich) and passaged when the cultures reach a confluency of 70%. Prior to experiments, H9C2 myoblasts were differentiated to cardiomyocytes by serum reduction (to 1%) and stimulation with 20 nM retinoic acid for 5 days. Differentiated H9C2 cardiomyocytes were seeded at 0.6·10^5 cells/cm^2 for all experiments.
H9C2 cardiomyocytes (0.6·10^5 cells/cm2) were infected with CMV-copGPF (MOI 10) in culture medium without serum for 24 h. H9C2 cardiomyocytes were pre-incubated with 30 μM SUL compounds under standard culture conditions for 30 min and then stimulated with phenylephrine (dose range 2·10^−5 to 1·10^−11 M) for an additional period of 24 h. Thereafter H9C2 cardiomyocytes were lysed in 100 μl soft lysis buffer (25 mM Tris, 2 mM Dithiothreitol, 2 mM EDTA, 1% Triton X-100, pH 7.4). per well and fluorescence intensity of the obtained supernatant was recorded in a CLARIOStar Plus plate reader (BMG Labtech) equipped with a FITC filter set (excitation 488 nm with 10 nm bandwidth; emission 515 with a 20 nm bandwidth).
All experiments were performed in triplicate per condition and averaged. Data obtained from two individual experiments were used for evaluation in GraphPad Prism 8.0 (GraphPad Software Inc, Ca). Average H9C2 cardiomyocyte cell size was associated to average EGFP levels using linear regression. Phenylephrine-induced EGFP synthesis was normalized, using baseline levels as 0% and maximum EGFP recordings as 100%. All datasets were normalized to vehicle controls. 4 parameter non-linear regression was used to determine the efficacy of potency of phenylephrine to induce GFP synthesis. The efficacy of SUL compounds to inhibit phenylephrine-induced EGFP synthesis was calculated as 100%-Emax, wherein Emax is the maximal effect evoked by phenylephrine.

[2] = system: doxorubicin-induced heart failure; experiment: Cardiac fibrosis (picrosirius red, left-ventricular interstitial fibrosis); format: in vivo, rat; settings: doxorubicin rats; SUL-150 via food pellets, prophylaxis or therapeutic group
Experimental: The SUL-150 solution was sprayed homogeneously over standard food pellets (1.25 kg). […] Food pellets were freshly prepared weekly. With the approximation of 200 mg·kg^-1 SUL-150 in the food pellets and a daily dietary intake of 25 gram for a 350 gram rat, daily dosing of SUL-150 approximates 5 mg·day^-1. Male outbred Wistar rats of 250-300 grams (10-12 weeks old) were kept on a 12 h light/dark cycle and received a standard diet with distilled water ad libitum. Thirty rats were administered with doxorubicin (2 mg·kg^-1) weekly via intraperitoneal injection for 9 consecutive weeks and were left either untreated (standard chow diet, 10 rats), or received a diet supplemented with SUL-150 as prophylaxis (prior to the 1st doxorubicin administration, 10 rats) or therapy (starting after the 6th doxorubicin administration, 10 rats). Sham control rats (8 rats) were administered with saline weekly via intraperitoneal injection for 9 consecutive weeks and received a standard diet. All rats were subjected to cardiac function assessment 12 weeks after the first doxorubicin administration. […] Samples were imaged on a NanoZoomer S60 Digital slide scanner (Hammamatsu Photonics) and left-ventricular interstitial fibrosis (i.e. non-perivascular fibrosis) was quantified using Aperio ImageScope (Leica Biosystems, Nussloch, Germany).

[3] = system: doxorubicin-induced heart failure; experiment: Cardiac mitochondrial (mtDNA) copy number; format: in vivo, rat; settings: doxorubicin rats; administration of SUL-150
Experimental: as §1
as §2, with “rats). Sham control rats (8 rats) were administered with saline weekly via intraperitoneal injection for 9 consecutive weeks and received a standard diet.” for “rats).”
Cardiac tissue samples were homogenized in lysis buffer (100 mM NaCl, 10 mM EDTA, 0.5% SDS in 20 mM Tris-HCl, pH 7.4) containing 50 U·ml^−1 RNase I and 100 U·ml^−1 proteinase K (both ThermoFisher, Walthham, MA). […] MtDNA copy number was calculated as: […]

Cc1c(C)c2c(c(C)c1O)CC[C@](C)(C(=O)N1CCNCC1)O2 [SUL-150, (R)-(6-hydroxy-2,5,7,8-tetramethylchroman-2-yl)(piperazin-1-yl)methanone]
Doxorubicin-induced reduction of cardiac ATP content (normalized for ADP), FIG. 6A [1]: mitigated | SUL EGFP Inhibition (%) (H9C2 cardiomyocytes; 30 μM SUL compound, calculated as 100%-Emax): 66.49% | Expression of EGFP induced by phenylephrine (FIG. 3) (H9C2 cardiomyocytes; preincubation with 30 μM compound): reduced the expression of EGFP | Fibrogenic response in the left ventricle interstitium (collagen deposition), FIG. 4 [2]: blocks this fibrogenic reaction | Doxorubicin-induced reduction of cardiac mtDNA copy number, FIG. 6B [3]: precluded
